The target in one experiment is wild-type HIV-1 protease (Human immunodeficiency virus type 1 group M subtype B, UniProt P04585). Description: Assay for inhibition of microbial expressed HIV protease. Type of experiment: biochemical. The protocol:
Assay for Inhibition of Microbial Expressed HIV Protease
Inhibition studies of the reaction of the protease (which was expressed in Eschericia coli) with a peptide substrate [Val-Ser-Gln-Asn-(betanapthyl)Ala-Pro-Ile-Val]. The inhibitor is first preincubated with the enzyme in assay buffer (50 mM sodium acetate, pH 5.5, 100 mM NaCl, and 0.1% BSA) for 30 minutes at room temperature. Substrate is added to 440 micromolar in a total volume of 80 microliters containing 5 picomolar HIV-1 protease, and the reaction is incubated for 1 hour at 30° C. The reaction is quenched by addition of 120 microliters of 10% phosphoric acid, and product formation is determined after separation of product and substrate on a Vydac C18 column connected to an Alliance high performance liquid chromatography system (Waters Corporation). The extent of inhibition of the reaction is determined from the peak area of the products.

Experiment [1] concerns acute HIV infection of T-lymphoid cells. The experiment is described as follows: Assay for inhibition of HIV replication (spread assay). Type of experiment: cell-based, HIV-1. The settings on record: Human immunodeficiency virus 1, T-lymphoid; read-out: Spread - IC95. The protocol: • Assay for Inhibition of HIV Replication
Assays for the inhibition of acute HIV infection of T-lymphoid cells were conducted in accordance with Vacca, J. P. et al., Proc. Natl. Acad. Sci. USA 1994, 91: 4096.

[2] abbreviates: wild-type HIV-1 protease expressed in E. coli, peptide substrate, pH 5.5, read-out: Enzyme Inhibition - IC50.

Read-outs that look alike come from different tables or passages of the source.

In general, IC50 refers to the concentration that inhibits the measured activity by half. Usually IC95 stands for the concentration at which the effect reaches the 95% level. Consider `CC[C@@H](CCC[C@@H](CO)N(CCC(C)C)S(=O)(=O)c1ccc(N)cc1)NC(=O)[C@@]1(NC(=O)OC(C)(C)C)C[C@@H]1c1ccccc1` [Example F9, tert-butyl {(1R,2R)-1-[({(1S,5S)-5-[[(4-aminophenyl)sulfonyl](3-methylbutyl)amino]-1-ethyl-6-hydroxyhexyl}amino)carbonyl]-2-phenylcyclopropyl}carbamate], for which the IC50 on wild-type HIV-1 protease (setting [2]) was 0.064 nM. Moreover, the IC95 in experiment [1] is 76 nM.

Consider `CC[C@@H](CCC[C@@H](CO)N(CCC(C)C)S(=O)(=O)c1ccc(N)cc1)NC(=O)[C@@H](NC(=O)OCc1ccncc1)C(c1ccccc1)c1ccccc1` [Example F10, N-{(1S,55)-5-[[(4-aminophenyl)sulfonyl](3-methylbutyl)amino]-1-ethyl-6-hydroxyhexyl}-β-phenyl-Nα-[(pyridin-4-ylmethoxy)carbonyl]-L-phenylalaninamide], for which, on wild-type HIV-1 protease (setting [2]), the IC50 was 0.01 nM. In addition, in experiment [1], the IC95 is 17 nM.

For the molecule `CC[C@@H](CCC[C@@H](CO)N(CCC(C)C)S(=O)(=O)c1ccc(N)cc1)NC(=O)[C@@H](NC(=O)OC)C1c2ccccc2Oc2ccccc21` [Example F11, methyl [2-({(1S,5S)-5-[[(4-aminophenyl)sulfonyl](3-methylbutyl)amino]-1-ethyl-6-hydroxyhexyl}amino)-2-oxo-1-(9H-xanthen-9-yl)ethyl]carbamate], at wild-type HIV-1 protease (setting [2]), the IC50 stood at 0.021 nM. The IC95 in experiment [1] stood at 38 nM.

Turning to `CC[C@@H](CCC[C@@H](CO)N(CCC(C)C)S(=O)(=O)c1ccc(N)cc1)NC(=O)[C@@H](N)C(c1ccccc1)c1ccccc1` [Example F13, N-{(1S,5S)-5-[[(4-aminophenyl)sulfonyl](3-methylbutyl)amino]-1-ethyl-6-hydroxyhexyl}-β-phenyl-L-phenylalaninamide], the IC50 at wild-type HIV-1 protease (setting [2]) worked out at 0.01 nM. Also, the IC95 in experiment [1] was 15 nM.

For the molecule `COC(=O)N[C@H](C(=O)N[C@H](CCC[C@@H](CO)N(C(C)C)S(=O)(=O)c1ccc(N)cc1)C(C)C)C(c1ccccc1)c1ccccc1` [Example F14, N-{(1R,5S)-5-[[(4-aminophenyl)sulfonyl](isopropyl)amino]-6-hydroxy-1-isopropylhexyl}-Nα-(methoxycarbonyl)-β-phenyl-L-phenylalaninamide], on wild-type HIV-1 protease (setting [2]), the IC50 was found to be 1.76 nM. Further, the IC95 in experiment [1] was 148 nM.

On to `COC(=O)N[C@H](C(=O)N[C@@H](C)CCC[C@@H](CO)N(C(C)C)S(=O)(=O)c1ccc(N)cc1)C(c1cccc(F)c1)c1cccc(F)c1` [Example F15, N-{(1S,5S)-5-[[(4-aminophenyl)sulfonyl](isopropyl)amino]-6-hydroxy-1-methylhexyl}-3-fluoro-β-(3-fluorophenyl)-Nα-(methoxycarbonyl)-L-phenylalaninamide], for which the 50% inhibitory concentration (IC50) on wild-type HIV-1 protease (setting [2]) is 0.01 nM. The IC95 in experiment [1] turned out to be 16 nM.

`COC(=O)N[C@@H](Cc1cccc(Cl)c1Cl)C(=O)N[C@@H](C)CCC[C@@H](CO)N(C(C)C)S(=O)(=O)c1ccc(N)cc1` [Example F16, N-{(1S,5S)-5-[[(4-aminophenyl)sulfonyl](isopropyl)amino]-6-hydroxy-1-methylhexyl}-2,3-dichloro-Nα-(methoxycarbonyl)-L-phenylalaninamide] came in with an IC50 against wild-type HIV-1 protease of 0.128 nM. In experiment [1], the IC95 was determined as 58 nM.

On to `CCCN([C@H](CO)CCC[C@H](C)NC(=O)[C@@H](NC(=O)OC)C(c1cccc(F)c1)c1cccc(F)c1)S(=O)(=O)c1ccc(N)cc1` [Example F17, N-{(1S,5S)-5-[[(4-aminophenyl)sulfonyl](propyl)amino]-6-hydroxy-1-methylhexyl}-3-fluoro-β-(3-fluorophenyl)-Nα-(methoxycarbonyl)-L-phenylalaninamide], for which the concentration for half-maximal inhibition (IC50) on wild-type HIV-1 protease (setting [2]) was 0.01 nM. For the same molecule, in experiment [1], the IC95 worked out at 18 nM.

For `CCN([C@H](CO)CCC[C@H](C)NC(=O)[C@@H](NC(=O)OC)C(c1ccccc1)c1ccccc1)S(=O)(=O)c1ccc(CO)cc1` [Example G1, N-[(1S,5S)-5-(ethyl{[4-(hydroxymethyl)phenyl]sulfonyl}amino)-6-hydroxy-1-methylhexyl]-Nα-(methoxycarbonyl)-β-phenyl-L-phenylalaninamide], the IC50 at wild-type HIV-1 protease (setting [2]) came to 0.05 nM. Moreover, the 95% effect concentration (IC95) in experiment [1] turned out to be 37 nM.

Take `COC(=O)N[C@@H](Cc1ccccc1Cl)C(=O)N[C@@H](C)CCC[C@@H](CO)N(CC(C)C)S(=O)(=O)c1ccc(CO)cc1` [Example G2, 2-chloro-N-{(1S,5S)-6-hydroxy-5-[{[4-(hydroxymethyl)phenyl]sulfonyl}(isobutyl)amino]-1-methylhexyl}-Nα-(methoxycarbonyl)-L-phenylalaninamide]: the IC50 at wild-type HIV-1 protease (setting [2]) came out at 0.082 nM. Also, in experiment [1], the IC95 was determined as 14 nM.

Take `COC(=O)N[C@H](C(=O)N[C@H](CCC[C@@H](CO)N(CCC(C)C)S(=O)(=O)c1ccc2ncsc2c1)C1CC1)C(c1ccccc1)c1ccccc1` [Example G3, N-{(1R,5S)-5-[(1,3-benzothiazol-6-ylsulfonyl)(3-metbylbutyl)amino]-1-cyclopropyl-6-hydroxyhexyl}-Nα-(methoxycarbonyl)-β-phenyl-L-phenylalaninamide]: the IC50 at wild-type HIV-1 protease (setting [2]) came out at 0.158 nM. Moreover, in experiment [1], the concentration for an effect of 95% (IC95) came out at 44 nM.

For the molecule `COC(=O)N[C@H](C(=O)N[C@@H](C)CCC[C@@H](CO)N(C)S(=O)(=O)c1ccc(N)cc1)C(c1ccccc1)c1ccccc1` [Example G4, N-{(1S,5S)-5-[[(4-aminophenyl)sulfonyl](methyl)amino]-6-hydroxy-1-methylhexyl}-Nα-(metboxycarbonyl)-β-phenyl-L-phenylalaninamide], at wild-type HIV-1 protease (setting [2]), the IC50 is 0.405 nM. Further, the IC95 in experiment [1] stood at 41 nM.

Turning to `CCN([C@H](CO)CCC[C@H](C)NC(=O)[C@@H](NC(=O)OC)C(c1ccccc1)c1ccccc1)S(=O)(=O)c1ccc(N)cc1` [Example G5, N-{(1S,5S)-5-[[(4-aminophenyl)sulfonyl](ethyl)amino]-6-hydroxy-1-methylhexyl}-Nα-(methoxycarbonyl)-β-phenyl-L-phenylalaninamide], the IC50 at wild-type HIV-1 protease (setting [2]) is 0.378 nM. Further, the IC95 in experiment [1] was determined as 64 nM.

Take `COC(=O)N[C@H](C(=O)N[C@@H](C)CCC[C@@H](CO)N(C)S(=O)(=O)c1ccc(CO)cc1)C(c1ccccc1)c1ccccc1` [Example G6, N-{(1S,5S)-6-hydroxy-5-[{[4-(hydroxymethyl)phenyl]sulfonyl}(methyl)amino]-1-methylhexyl}-Nα-(methoxycarbonyl)-β-phenyl-L-phenylalaninamide]: on wild-type HIV-1 protease (setting [2]), the IC50 was determined as 0.376 nM. Besides, in experiment [1], the IC95 turned out to be 161 nM.

As for `COC(=O)N[C@H](C(=O)N[C@@H](C)CCC[C@@H](CO)N(CC1CC1)S(=O)(=O)c1ccc(N)cc1)C(c1ccccc1)c1ccccc1` [Example G7, N-{(1S,5S)-5-[[(4-aminophenyl)sulfonyl](cyclopropylmethyl)amino]-6-hydroxy-1-methylhexyl}-Nα-(methoxycarbonyl)-β-phenyl-L-phenylalaninamide], on wild-type HIV-1 protease (setting [2]), the 50% inhibitory concentration (IC50) turned out to be 0.024 nM. The concentration for an effect of 95% (IC95) in experiment [1] worked out at 15 nM.

For the molecule `COC(=O)N[C@@H](Cc1ccccc1Cl)C(=O)N[C@@H](C)CCC[C@@H](CO)N(C)S(=O)(=O)c1ccc(CO)cc1` [Example G8, 2-chloro-N-{(1S,5S)-6-hydroxy-5-[{[4-(hydroxymethyl)phenyl]sulfonyl}(methyl)amino]-1-methylhexyl}-Nα-(methoxycarbonyl)-L-phenylalaninamide], the IC50 at wild-type HIV-1 protease (setting [2]) was determined as 3.2 nM. Besides, the IC95 in experiment [1] was 191 nM.

On to `CCN([C@H](CO)CCC[C@H](C)NC(=O)[C@H](Cc1ccccc1Cl)NC(=O)OC)S(=O)(=O)c1ccc(CO)cc1` [Example G9, 2-chloro-N-[(1S,5S)-5-(ethyl{[4-(hydroxymethyl)phenyl]sulfonyl}amino)-6-hydroxy-1-methylhexyl]-Nα-(methoxycarbonyl)-L-phenylalaninamide], for which the 50% inhibitory concentration (IC50) on wild-type HIV-1 protease (setting [2]) is 0.629 nM. For the same molecule, the concentration for an effect of 95% (IC95) in experiment [1] was determined as 102 nM.

Regarding `COC(=O)N[C@@H](Cc1ccccc1Cl)C(=O)N[C@@H](C)CCC[C@@H](CO)N(C(C)C)S(=O)(=O)c1ccc(CO)cc1` [Example G10, 2-chloro-N-{(1S,5S)-6-hydroxy-5-[{[4-(hydroxymethyl)phenyl]sulfonyl}(isopropyl)amino]-1-methylhexyl}-Nα-(methoxycarbonyl)-L-phenylalaninamide], on wild-type HIV-1 protease (setting [2]), the IC50 stood at 0.389 nM. The IC95 in experiment [1] worked out at 49 nM.

Take `COC(=O)N[C@@H](Cc1ccccc1Cl)C(=O)N[C@@H](C)CCC[C@@H](CO)N(C(C)C)S(=O)(=O)c1ccc(N)cc1` [Example G11, N-{(1S,5S)-5-[[(4-aminophenyl)sulfonyl](isopropyl)amino]-6-hydroxy-1-methylhexyl}-2-chloro-Nα-(methoxycarbonyl)-L-phenylalaninamide]: the IC50 on wild-type HIV-1 protease (setting [2]) came out at 1.3 nM. Also, the 95% effect concentration (IC95) in experiment [1] is 93 nM.

Take `COC(=O)N[C@@H](Cc1ccccc1Br)C(=O)N[C@@H](C)CCC[C@@H](CO)N(CC(C)C)S(=O)(=O)c1ccc(CO)cc1` [Example G12, 2-bromo-N-{(1S,5S)-6-hydroxy-5-[{[4-(hydroxymethyl)phenyl]sulfonyl}(isobutyl)amino]-1-methylhexyl}-Nα-(methoxycarbonyl)-L-phenylalaninamide]: the IC50 at wild-type HIV-1 protease (setting [2]) was 0.055 nM. In experiment [1], the IC95 is 15 nM.

On to `COC(=O)N[C@@H](Cc1ccccc1Br)C(=O)N[C@@H](C)CCC[C@@H](CO)N(C(C)C)S(=O)(=O)c1ccc(CO)cc1` [Example G13, 2-bromo-N-{(1S,5S)-6-hydroxy-5-[{[4-(hydroxymethyl)phenyl]sulfonyl}(isopropyl)amino]-1-methylhexyl}-Nα-(methoxycarbonyl)-L-phenylalaninamide], for which, at wild-type HIV-1 protease (setting [2]), the IC50 came to 0.291 nM. Also, in experiment [1], the IC95 turned out to be 71 nM.
